From patent US8278072B1, “Method for synthesis of sialylated products using reversible sialylation” (Health Research, Inc., priority 2007, dated 2012)

Key:
Assay type in all cases: biochemical
ST3Gal-II [1] = molecular target: T1, ST3Gal-II (Rattus norvegicus, UniProt Q11205); assay: Reverse sialylation: transfer of [9-3H]NeuAc from sialylated donor to nucleotide phosphates (WGA-agarose); settings: nucleotide phosphate 1 mM as acceptor, donor [1]
T1 construct: purchased Calbiochem
T1 sequence (Q11205 1-350): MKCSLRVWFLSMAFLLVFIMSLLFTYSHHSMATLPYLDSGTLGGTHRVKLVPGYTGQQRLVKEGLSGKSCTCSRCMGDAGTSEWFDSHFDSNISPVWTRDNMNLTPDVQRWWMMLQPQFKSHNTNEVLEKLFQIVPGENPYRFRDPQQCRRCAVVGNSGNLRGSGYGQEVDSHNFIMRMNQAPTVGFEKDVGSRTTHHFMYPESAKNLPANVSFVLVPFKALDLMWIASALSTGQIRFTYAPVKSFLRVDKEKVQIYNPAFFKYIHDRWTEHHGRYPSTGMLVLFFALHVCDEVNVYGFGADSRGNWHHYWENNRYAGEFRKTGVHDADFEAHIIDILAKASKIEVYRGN
Experimental: FIG. 1. Nucleotide phosphates as acceptors of radioactivity from [9-^3H]NeuAcα2,3Galβ,13 (GlcNAcβ1,6)GalNAcα-O—Al (Al=Allyl) [[9-^3H] [1]] in the presence of ST3Gal-II (scheme-I). Reaction mixtures (RM) with the following composition were incubated at 37° C. for 21 hours in 100 mM NaCa Codylate buffer, pH6.0: i) RM containing 150 μM (0.4 μCi) [[9-^3H] [1]] (donor) along with 0.8 mU ST3Gal-II but no 5″-CMP; and, ii) RM containing [[9-^3H] [1]] and 1.0 mM 5′-CMP, along with ST3Gal-II. Products formed were fractionated on a WGA-agarose column. […] The feasibility of the reverse reaction is well established in literature. Schematic symbols: ♦:sialic acid, ●:Gal, □:GalNAc, ▪:GlcNAc.
All enzymatic sialylation reactions were typically carried out in 100 mM NaCa Codylate buffer pH6.0 in the presence of enzyme, synthetic acceptor (at 7.5 mM or as indicated in each experiment) and 0.2 μCi CMP-[9-^3H]NeuAc (NEN-Dupont, 29 mCi/μmol). The concentration of total CMP-NeuAc was adjusted in individual reactions by supplementing with additional cold CMP-NeuAc. Reaction volume was 20 μl. Products formed were separated using four different chromatography procedures (below). In all cases, the radioactive content of isolated products was determined by using 3a70 scintillation cocktail (Research Products International, Mount Prospect, Ill.), and a Beckman LS6500 scintillation counter.
(§1) a) Biogel P2 chromatography: A Biogel P2 column (Fine Mesh; 1.0×116.0 cm) was used with 0.1 M pyridine acetate (pH5.4) as the eluent at room temperature. […] Fractions of 1.0 ml were collected. The bound material was then eluted with 0.5M GlcNAc or 0.2M Gal in the same buffer. […] Calculation of equilibrium constant, Keq: Equilibrium constant was calculated for selected reversible bimolecular reactions that are denoted by:
Cloned and purified rat sialyltransferase α2,3(O)ST (ST3Gal-II) is used in many experiments presented in this manuscript. […] In order to determine if the sialylation reaction is reversible (FIG. 1), [9-^3H]NeuAcα2,3Galβ,13(GlcNAcβ1,6)GalNAcα-O—Al (Al=Allyl) [9-^3H[1]] was prepared using ST3Gal-II in the presence of CMP-[9-^3H]NeuAc and the trisaccharide acceptor Galβ1,3(GlcNAcβ1,6)GalNAcα-O—Al, and the radiolabeled product was isolated using Biogel P2 chromatography. […] Two different reaction mixtures were then prepared with: i) [9-^3H[1]] and ST3Gal-II but without 5″-CMP; and ii) [9-^3H[1]] and 5″-CMP along with ST3Gal-II.

ST3Gal-II [2] = molecular target: T1, ST3Gal-II; assay: Reverse sialylation by ST3Gal-II in presence of citrate or 5′-nucleotides; settings: 0.2 mM [3], 7 mM 5′-CMP, 3.0 mM [5], 4 hours
Experimental: FIG. 5. Effect of 5′-nucleotides on direct sialyltransferase activity (panel a) and reverse sialylation (panel b). a. Varying concentrations of 5′-CDP or 5′-CMP were added to 100 mM acceptor (specified below), 0.15 mM CMP-[9-^3H]NeuAc and either ST3Gal-II (0.2 mU), ST3Gal-III (0.5 mU) or ST6Gal-I (0.2 mU) for 4 h at 37° C. Products were separated using Sep-Pak C18 method. ST3Gal-III activity was measured using acceptor 4-O-MeGalβ1,4GlcNAcβ-O-Bn in the presence of 5′-CDP (●) and 5′-CMP (◯). ST6Gal-I activity was measured using Gal β1,4GlcNAcβ-O-Bn in the presence of 5′-CDP (▴) and 5′-CMP (Δ). ST3Gal-II using D-Fucβ1,3GalNAcα-O-Bn in the presence of 5′-CDP (▪) and 5′-CMP (□). b) Reverse sialylation by ST3Gal-II was measured in reaction mixtures containing 0.2 mM [9-^3H] [3], 7 mM 5′-CMP, ST3Gal-II (2 mU), D-Fucβ1,3GalNAcα-OBn (3.0 mM) and varying doses of either 5′-CDP (▴), 5′-UMP (◯) or 2-deoxy 5′-CMP (●) for 4 hours at 37° C. Reaction product ([9-^3H]NeuAcα2,3DFucβ1,3 GalNAcα-O-Bn) was isolated using Sep-Pak C18 method. In some runs, where was absent, the amount of CMP-NeuAc produced was quantified using the Dowex-1 Formate method in the presence of varying doses of 5′-CDP (▪).
Besides pH other distinctions were also observed between forward and reverse sialylation. In this regard, citrate ions tended to inhibit forward sialylation but not reverse sialylation activity (Table V). For these studies, the effect of citrate on the forward sialylation activity of ST3Gal-I, ST3Gal-II, ST3Gal-III and ST6Gal-I was examined. Reverse sialylation activity of ST3Gal-II was also measured in terms of: i) the formation of CMP-NeuAc from 5′-CMP; and ii) the transfer of NeuAc from this newly synthesized CMP-NeuAc to another O-glycan. From the data (Table V), it is evident that citrate inhibits the direct sialylation activity of all the enzymes mentioned above. However, both the synthesis of CMP-[9-^3H]NeuAc from 5′-CMP as well as the synthesis of [9-^3H]NeuAcα2,3D-Fucβ1,3 GalNAcα-O-Bn using the newly formed CMP-[9-^3H]NeuAc through reverse sialylation of ST3Gal-II was not inhibited by citrate.
The effect of 5′-nucleotides on forward sialylation (FIG. 5a) and reverse sialylation (FIG. 5b) were examined. […] The overall formation of [9-^3H]NeuAcα2,3D-Fucβ1,3 GalNAcα-O-Bn by the two-step reverse sialylation process, however, was inhibited by 5′-CDP and this is consistent with the finding that 5′-CDP inhibits forward sialylation in the second step.

ST3Gal-II [3] = molecular target: T1, ST3Gal-II; assay: Reverse sialylation equilibrium constant (Keq) and 5′-CMP dose dependence; settings: acceptor 5′-CMP
Experimental: FIG. 2. Equilibrium constant. a. Reversible sialyltransferase activity at increasing concentration of 5′-CMP. 0.15 mM of donor [9-^3H]NeuAcα2,3Galβ1,3(4-FGlcNAcβ1,6)GalNAcα-O-Bn [9-^3H[2]] was incubated with varying concentrations of 5′-CMP and 0.15 mU ST3Gal-II under conditions described in FIG. 1 for 2 hours. The consumption of the [9-^3H]NeuAc benzyl glycoside donor was measured by subjecting the incubation mixture to Sep-Pak C18 fractionation, which binds the donor and not CMP-[9-^3H]NeuAc. The reaction proceeded to ½ the maximum extent at 80 μM 5′-CMP. b. Equilibrium constant Keq (=0.35) calculated for data in panel a. c. Varying concentrations of 5′-CMP was sialylated with ST3Gal-II (2.0 mU) using either 0.15 mM (panel c) or 1.5 mM (not shown) sialyl donor [9-^3H]NeuAcα2,3Galβ1,3GalNAcβ1,3Galα-O-Me [9-^3H[3]] for 4 hours. The product CMP-[9-^3H]NeuAc and the unused [9-^3H[3]] were separated and quantitated by Dowex-1-Formate method. d. Equilibrium constant, Keq=98.9. Diamonds denote data from 1.5 mM runs while data from 0.15 mM runs are depicted by squares.
as §1
[formula] Here, [9-^3H]D* denotes the radiolabeled donor and D′ is the donor after removal of sialic acid. Similarly, A and [9-^3H]A* denote the acceptor before and after incorporation of NeuAc. In each run, unreacted [9-^3H]D* and product [9-^3H] A* are measured using radioactivity measurements. The equilibrium constant (Keq=kreverse/kforward, dimensionless units) are then determined using the following equation, where terms in square brackets denote concentrations:
[formula] [D0] and [A0] are initial donor and acceptor concentrations. A plot of [D*]/([D0]−[D*]) versus [A*]/([A0]−[A*]) yields Keq from slope data. Keq<1 implies that the forward reaction is favored and the reaction proceeds to the right side to form [9-^3H]A* efficiently. Liquid Chromatography Coupled with Tandem Mass Spectrometry (LC/MS/MS)
Similar results were observed upon increasing concentrations of 5′-CMP when [9-^3H]NeuAcα2,3Galβ1,3(4-FGlcNAcβ1,6) GalNAcα-O-Bn [9-^3H[2]] was donor (FIG. 2a, b). The concentration of 5′-CMP that mediated half-maximal transfer of [9-^3H]NeuAc was 80 μM. The bimolecular equilibrium constant (Keq) for this reaction was 0.35 (dimensionless units, Table I). Indeed, the Keq varied depending on the donor and it was 98.9 when the donor was based on the globo glycolipid, [9-^3H]NeuAcα2,3Galβ1,3GalNAcβ1,3 Gala-O-Me [[9-^3H] [3]] (FIG. 2c, d). Upon comparing and [3], it is apparent that reverse sialylation proceeds more effectively in the case of [2]. To further confirm the above estimates of Keq for core-2 based structures, we also calculated this parameter for our previously published data where [9-^3H]CMP-NeuAc was donor and mucin core-2 tetrasaccharide Galβ1,4GlcNAcβ1,6(Galβ1,3)GalNAcα-O-Bn was acceptor. In this case, Keq measured with respect to the rate of mucin core-2 sialylation was 5.55 (data not shown), which translates to a reverse sialylation Keq of 0.18.

Row | Incorporation of [9-3H]NeuAc expressed as percent of the CPM incorporated into 5′-CMP (ST3Gal-II [1]) | Keq (dimensionless units), reverse sialylation equilibrium constant (ST3Gal-II [3]; translated from Keq 5.55 of mucin core-2 sialylation, previously published data) | Keq (dimensionless units), reverse sialylation equilibrium constant (ST3Gal-II [3]; sialylated donor) | Molecule | Effect on overall formation of [9-3H]NeuAcα2,3D-Fucβ1,3GalNAcα-O-Bn by two-step reverse sialylation (ST3Gal-II [2])
1 | 26.3% |  |  | Nc1ccn([C@H]2C[C@H](O)[C@@H](COP(=O)(O)O)O2)c(=O)n1 [2′ deoxy 5′-CMP] | did not alter the extent of product formation
2 | 55.9% |  |  | O=c1ccn([C@@H]2O[C@H](COP(=O)(O)O)[C@@H](O)[C@H]2O)c(=O)[nH]1 [5′-UMP] | did not alter the extent of product formation
3 |  | 0.18 |  | [9-^3H]NeuAcα2,3Gal(1,3(Gal(1,4GlcNAc(1,6)GalNAc(-O-Bn | 
4 |  |  | 98.9 | [9-^3H]NeuAcα2,3Galβ1,3GalNAcβ1,3Galα-O-Me [[3]] | 
